From patent US10166225B2, “Method for treating osteoporosis” (Exelixis, Inc., priority 2011, dated 2019)

Assays:
[1] = women, subcutaneous denosumab 60 mg every 6 months; one month after injection; cited from earlier work
[2] = postmenopausal women, one subcutaneous injection, dose-dependent, for as long as 6 months; cited from earlier work
human osteoclasts = experiment: Osteoclast activity assay (resorption index CTX/TRACP 5b); type: cell-based; conditions: reference inhibitor, 1_M
Protocol: In the second part, the culture medium of human osteoclasts was replaced by new medium at day 7, and the formed mature osteoclasts were cultured for an additional 3 days, allowing them to resorb bone. Compound 1 was added into the culture medium at day 7. […] C-terminal cross-linked telopeptides of type I collagen (CTX) were measured in the culture medium collected at day 10 to quantitate bone resorption during days 7-10. […] was measured at day 7 to quantitate osteoclast number before Compound 1 was added. The CTX values were divided by the […] values, resulting as a resorption index that indicates mean osteoclast activity. […] The objective of this study was to investigate the effects of Compound 1 selected by the Sponsor on differentiation and activity of human osteoclasts and mouse osteoblasts in vitro. The effects on osteoclasts were studied using a model where bone marrow-derived human osteoclast precursor cells are cultured on bovine bone slices for 7 days in conditions favouring osteoclast differentiation, and allowed to differentiate into bone-resorbing osteoclasts. After completion of osteoclast differentiation at day 7, the culture medium was removed and new culture medium favouring osteoclast activity was added into the wells. The mature osteoclasts were then cultured for an additional 3 days, allowing them to resorb bone. In the osteoclast differentiation assay, the test compounds and a reference inhibitor osteoprotegerin (OPG) were added into cultures at day 0. In the osteoclast activity assay, the test compounds and a reference inhibitor E64 were added into cultures at day 7. Seven concentrations in 8 replicates were tested in both assays. Tartrate-resistant acid phosphatase 5b activity ([…]) was measured from the culture medium collected at day 7 as an index of the number of osteoclasts formed in each well during the differentiation period. C-terminal cross-linked telopeptides of type I collagen (CTX) was measured from the culture medium collected at day 10 to quantitate bone resorption during days 7-10. A human osteoclast culture system was developed for use in this study where CD34+ osteoclast precursor cells derived from human bone marrow (Poietics® Human Osteoclast Precursors, Lonza, Walkersville, USA) are cultured on bovine bone slices in the presence of appropriate growth factors, including M-CSF and RANK-ligand ([…] et al. 2009). The cells are first allowed to differentiate into mature bone-resorbing osteoclasts, and the formed osteoclasts are then allowed to resorb bone. The test and reference compounds are added into the cell cultures at the beginning of the differentiation and/or the resorption period, and their effects on the differentiation and/or resorbing activity of osteoclasts are determined. Secreted […] is determined from the culture medium after the differentiation period using a commercially available method (BoneTRAPÒ, IDS Ltd, Boldon, UK). Secreted […] describes accurately the number of osteoclasts formed in each well during the differentiation period. CTX is determined from the culture medium after the resorption period using a commercially available method (CrossLapsÒ for cultures, IDS Ltd, Boldon, UK). CTX describes accurately the amount of bone collagen degradation products released into the culture medium in each well during the resorption period. […] In this study, human bone marrow-derived CD34+ stem cells (10000 cells/well) were suspended in culture medium and allowed to attach to bovine bone slices in 96-well tissue culture plates. The culture medium (containing 10% FBS, OCP BulletKit® Lonza, Walkersville, USA) was supplemented with appropriate amounts of important growth factors favoring osteoclast differentiation and activity, including M-CSF (33 ng/ml, OCP BulletKit® Lonza, Walkersville, USA) and RANK-ligand (66 ng/ml, OCP BulletKit® Lonza, Walkersville, USA) in 200 μl of medium. The cells were incubated in a CO2 incubator in humidified atmosphere of 95% air and 5% carbon dioxide at 37° C. […]

Row | Compound | serum CTx levels [1] | suppression of urinary NTx [2] | effect on osteoclast activity (human osteoclasts)
1 | denosumab: subcutaneous denosumab (60 mg) in the FREEDOM osteoporosis trial | decreased to levels below the premenopausal reference interval | up to 81% | –
2 | CC(C)C[C@H](NC(=O)[C@H]1O[C@@H]1C(=O)O)C(=O)NCCCCN=C(N)N [Compound E64, reference compound] | – | – | inhibited significantly
